Counter-ions that a name gives are not always drawn. Like-named read-outs stand apart in the source and are kept apart here.
Legend:
[1] = test system: patients suffering from non-constipated irritable bowel syndrome; details: 1 to 8 mg twice daily, cited from earlier work
[2] = test system: male and female patients suffering from diarrhea-predominant irritable bowel syndrome (IBS); experiment: Clinical study with patients suffering from diarrhea-predominant irritable bowel syndrome (Test Example 1); assay type: in vivo, human; details: for final monthly responder rate in the global assessment of relief of overall IBS symptoms: placebo group 26.9%
Procedure: Clinical study was carried out under the following condition using male and female patients suffering from diarrhea-predominant irritable bowel syndrome (IBS) as subjects.
Subjects: Patients suffering from diarrhea-predominant IBS in accordance with the Rome II Diagnosis Criteria (D. A. Drossman, et al., pages 351 to 432, ROME II: The functional Gastrointestinal Disorders, Second Edition, Degnon Associates, McLean, 2000).
Test drugs and Administration Methods: Placebo and ramosetron hydrochloride were orally administered for 12 weeks at 0.005 mg or 0.01 mg once daily.
Test Periods: Observation period for one week and treating period for 12 weeks
After transition to the treating period, the starting date for administration of the test drug was defined as the first day. Every week, global assessment of relief of overall IBS symptoms was evaluated taking all symptoms by IBS of the subjects into consideration, comparing with their state in the observation period, and this evaluation was recorded in a patient diary. Incidentally, scores for the global assessment of relief of overall IBS symptoms were as follows.
The subjects where the score was 0 or 1 for two weeks or more during the four weeks were made monthly responders and the monthly responder rate per month was calculated separately for each group of 0.005 mg and 0.01 mg of placebo and ramosetron hydrochloride.
After transition to the treating period, the starting date for administration of the test drug was defined as the first day. Every week, global assessment of relief of abdominal discomfort/pain by the test drug was evaluated with the state in the observation period and was recorded in a patient diary. Incidentally, scores for the global assessment of relief of abdominal discomfort/pain were as follows.
After transition to the treating period, the starting date for administration of the test drug was defined as the first day. Every week, global assessment of improvement of abnormal bowel habits was evaluated comparing with the state in the observation period, and was recorded in a patient diary. Incidentally, scores for the global assessment of improvement of abnormal bowel habits were as follows.
With regard to (1) to (3) for the subsidiary evaluation items, they were also subjected to calculations of monthly responder rate the same as those for the main evaluation items.

[3] = test system: patients suffering from irritable bowel syndrome; experiment: Former clinical studies, ramosetron hydrochloride administered twice daily to patients suffering from irritable bowel syndrome; assay type: in vivo, human
From the text: The present inventors have carried out intensive investigations for the purpose of creation of novel treating agents for irritable bowel syndrome including non-constipated irritable bowel syndrome such as diarrhea-predominant irritable bowel syndrome and alternating constipation/diarrhea irritable bowel syndrome for which no sufficiently effective treating agent has been available.

[4] = 0.005 mg and 0.01 mg once daily, 12 weeks

| Compound | relief of pain and discomfort, stool consistency, bowel movement frequency and proportion of days with urgency, compared with placebo ([1]; female patients) | relief of pain and discomfort, stool consistency, bowel movement frequency and proportion of days with urgency, compared with placebo ([1]; male patients) | difference in the responder rates between placebo group and ramosetron group: male versus female patients ([2]; 0.005 mg and 0.01 mg once daily) | final monthly responder rate in the global assessment of relief of abdominal discomfort/pain, better than the placebo group [2, 4] | final monthly responder rate in the global assessment of relief of abnormal bowel habits, better than the placebo group [2, 4] | therapeutic effect in patients suffering from diarrhea-predominant irritable bowel syndrome (conclusion) ([2]; 0.005 mg and 0.01 mg, administration once daily) | final monthly responder rate in the global assessment of relief of overall IBS symptoms ([2]; 0.005 mg orally once daily, 12 weeks, p 0.0273 to placebo) [%] | final monthly responder rate in the global assessment of relief of overall IBS symptoms ([2]; 0.01 mg orally once daily, 12 weeks, p 0.0264 to placebo) [%] | monthly responder rate (overall IBS symptoms) in excess of the responder rate in the placebo group ([2]; groups of 0.005 mg and 0.01 mg once daily, 12 weeks) | therapeutic effect as compared with placebo [3] |
| --- | --- | --- | --- | --- | --- | --- | --- | --- | --- | --- |
| Cc1[nH]cnc1CN1CCc2c(c3ccccc3n2C)C1=O [alosetron] | significant improvement was noted in female patients | no significant improvement was noted as compared with placebo except stool consistency |  |  |  |  |  |  |  |  |
| Cn1cc(C(=O)[C@@H]2CCc3[nH]cnc3C2)c2ccccc21 [ramosetron hydrochloride, (−)-(R)-5-[(1-methyl-1H-indol-3-yl)carbonyl]-4,5,6,7-tetrahydro-1H-benzimidazole] |  |  | no difference was noted between male and female patients | more than 10% | more than 10% | effective for both males and females | 42.6 | 43.0 | more than 15% | significant therapeutic effect as compared with placebo was unable to be confirmed |

Source: patent US7683090B2, “Treating agent for irritable bowel syndrome” (Astellas Pharma Inc., priority 2004, dated 2010)
